The record followed here is paper PMC12040169 (PLOS Biology, 2025).

This data set is described as follows: in vitro. The following applies: human, hela cells, % viability.

As usually defined, the viability is a read-out of living cells in per cent, often relative to untreated cells. Take `CC1(C)C(=O)NCCN1C(=O)Cn1cnc2ccccc21` [CBK281856]: the viability at 28.5 h, 10 µM came out at 89.3%.

With `N#C/C(=C\c1cn(-c2ccccc2)nc1-c1cccc(S(=O)(=O)N2CCCC2)c1)c1nc2ccccc2c(=O)[nH]1` [CBK266296], the viability at 28.5 h, 10 µM is 91.9%.

`O=C(NC(Nc1cccc(C(F)(F)F)c1)C(=O)c1ccccc1)c1ccc(Cl)cc1` (stereo not drawn) [CBK263585]: the viability at 28.5 h, 10 µM is 89.5%.

As to `Cc1cccc(=O)n1CCCNc1cc(C2CCOC2)ncn1` (stereo not drawn) [CBK306992], the viability at 28.5 h, 10 µM is 84.4%.

For `COCCNc1nccnc1-c1cnc(OC)nc1OC` [CBK088558], the viability at 28.5 h, 10 µM is 109%.

With `CC(C)(C)c1cc(Br)ccc1OCC(=O)Nc1nc[nH]n1` [CBK263379], the viability at 28.5 h, 10 µM amounted to 96.1%.

Regarding `N#Cc1c(NC(=O)Cn2cnc3sc(-c4ccccc4)cc3c2=O)sc2c1CCC2` [CBK268053], the viability at 28.5 h, 10 µM came out at 95.2%.

For `Nc1ncc(-c2cccc3ncccc23)nc1N1CCC[C@@H]1CO` [CBK063441], the viability at 28.5 h, 10 µM was found to be 105%.

Regarding `Cc1ccc(S(=O)(=O)CCC(=O)Nc2ccc3sc(C)nc3c2)cc1` [CBK287706], the viability at 28.5 h, 10 µM worked out at 99.3%.

Turning to `OCC1CCCN1c1nccnc1-c1cccs1` (stereo not drawn) [CBK089060], the viability at 28.5 h, 10 µM was found to be 106%.

Consider `Cc1ccc(-c2cc(C(F)(F)F)n3ncc(C(=O)NCc4c(C)nn(C)c4C)c3n2)cc1` [CBK293956], for which the viability at 28.5 h, 10 µM was found to be 106%.

With `Cc1csc2c(N3CCCC3CC(O)c3cnn(C)c3)ncnc12` (stereo not drawn) [CBK304477], the viability at 28.5 h, 10 µM stood at 91.9%.

Turning to `Cc1cc(C)cc(NC(=O)C2C3C4CCC(C4)C23)c1` (stereo not drawn) [CBK058768], the viability at 28.5 h, 10 µM stood at 108%.

Turning to `O=C1CCC(=O)N1CCOc1nccnc1OC1CCN(CCc2c[nH]c3ccccc23)CC1` [CBK084355], the viability at 28.5 h, 10 µM came to 94.6%.

In the case of `CC(C)(C)C1CCc2c(sc(NC(=S)NC(=O)COc3ccccc3)c2C(N)=O)C1` (stereo not drawn) [CBK268634], the viability at 28.5 h, 10 µM came out at 107%.

Regarding `Cn1cnnc1SCCNC(=O)N1CCCN(Cc2cccs2)CC1` [CBK307485], the viability at 28.5 h, 10 µM was 94%.

Regarding `COc1ccc(-n2c(=O)[nH]cc(C(=O)Nc3cc(C)ccc3OC)c2=O)cc1` [CBK287548], the viability at 28.5 h, 10 µM amounted to 107%.

On to `CC(C)[C@H](CO)Nc1nccnc1-c1ccccc1CO` [CBK037408], for which the viability at 28.5 h, 10 µM turned out to be 98.2%.

Regarding `CSCCCNC(=O)N1CCCCC1CO` (stereo not drawn) [CBK156163], the viability at 28.5 h, 10 µM was 108%.

In the case of `CCOC(=O)CSc1nc(-c2ccc3c(c2)OCO3)ccc1C#N` [CBK270262], the viability at 28.5 h, 10 µM was determined as 87.6%.

Consider `O=S(=O)(Nc1ccc2[nH]ncc2c1)c1ccc(Br)cc1C(F)(F)F` [CBK062529], for which the viability at 28.5 h, 10 µM amounted to 100%.

`O=C(CC1C(=O)Nc2ncnn21)Nc1ccccc1` (stereo not drawn) [CBK288071]: the viability at 28.5 h, 10 µM amounted to 90.7%.

Consider `FC(F)(F)Oc1cccc(-c2cn3ccnc3c(NCCc3ccccn3)n2)c1` [CBK038017], for which the viability at 28.5 h, 10 µM turned out to be 96.7%.

Turning to `CS(=O)(=O)Nc1ccc2[nH]ccc2c1` [CBK062728], the viability at 28.5 h, 10 µM turned out to be 91.2%.

`C(=N\Nc1nc2ccccc2[nH]1)/c1cccnc1` [CBK026357]: the viability at 28.5 h, 10 µM came out at 115%.

For `CCc1c[nH]c(SCC(=O)c2cc(C)n(C3CCS(=O)(=O)C3)c2C)n1` (stereo not drawn) [CBK306486], the viability at 28.5 h, 10 µM turned out to be 83.5%.

For `COc1ccc2[nH]c(SCC(=O)O)nc2c1` [CBK091620], the viability at 28.5 h, 10 µM was 91%.

As for `O=C(O)CCNc1nc(Cc2ccccc2)nc2sc3c(c12)CCCC3` [CBK265345], the viability at 28.5 h, 10 µM was 93.4%.

For `C=CCNC(=O)N[C@H]1C[C@H]2C(=O)Nc3cc(Cl)ccc3C(=O)N2C1` [CBK289365], the viability at 28.5 h, 10 µM was found to be 92.5%.

For `Cc1ccc(OC(=O)CCC(=O)Nc2ccc(S(N)(=O)=O)cc2)cc1` [CBK264708], the viability at 28.5 h, 10 µM was determined as 95.1%.

For `CC(C)(C)OC(=O)NCc1ccc(CNCc2ccccc2Br)cc1` [CBK056701], the viability at 28.5 h, 10 µM was determined as 96.6%.

Consider `Cc1ccc(C2=CCN(CC(=O)NCc3ccco3)CC2)o1` [CBK283632], for which the viability at 28.5 h, 10 µM is 107%.

With `O=C(CSc1nc(-c2ccc(F)cc2)cc(C(F)(F)F)n1)NCCN1CCOCC1` [CBK266121], the viability at 28.5 h, 10 µM was 99.6%.

On to `Cc1ccc(CN(CCCn2ccnc2)Cc2[nH]cnc2C)s1` [CBK283138], for which the viability at 28.5 h, 10 µM was determined as 90.3%.

Take `Nc1nc(OCCN2CCOCC2)cnc1-c1cc(Cl)cc(Cl)c1` [CBK145198]: the viability at 28.5 h, 10 µM was 99.8%.

With `O=C(c1cc(O)nc2ccccc12)N1CCN(S(=O)(=O)N2CCCC2)CC1` [CBK297898], the viability at 28.5 h, 10 µM was 88.6%.

Turning to `O=C1NC(=O)C2(CCN(C(=O)c3csc4c3CCCC4)C2)N1` (stereo not drawn) [CBK305533], the viability at 28.5 h, 10 µM worked out at 89.8%.

Regarding `CCc1nc2ccc(C(=O)NC3CCN(Cc4ccccc4)CC3)cn2c1N(C)CC` [CBK145488], the viability at 28.5 h, 10 µM worked out at 88.3%.

Consider `CN(C)C(c1ccc2c(c1)OCO2)c1nnnn1C1CCCCC1` (stereo not drawn) [CBK020620], for which the viability at 28.5 h, 10 µM was 103%.

As for `Cc1cc(-c2ccccc2)nc(SCC(=O)Nc2nnc(C)s2)n1` [CBK058194], the viability at 28.5 h, 10 µM amounted to 87.3%.

For `CCC(=O)Nc1nonc1-c1nc2ccccc2n1Cc1ccc(F)cc1Cl` [CBK269608], the viability at 28.5 h, 10 µM turned out to be 84.1%.

For the compound `O=C(Nc1ccc(Oc2ncccn2)cc1)c1csc(-c2ccccc2)n1` [CBK298324], the viability at 28.5 h, 10 µM was determined as 85.5%.

Regarding `C(=N\c1cccc2c(/N=C/c3c[nH]c4ccccc34)cccc12)/c1c[nH]c2ccccc12` [CBK260887], the viability at 28.5 h, 10 µM is 95.8%.

For the compound `O=C(CCn1cncn1)N[C@H]1C2CCCCC2[C@@H]1c1ccccc1` (stereo partly drawn) [CBK282970], the viability at 28.5 h, 10 µM came out at 100%.

In the case of `Cc1cnc(CNC(=O)c2cnoc2-c2ccccc2)cn1` [CBK154926], the viability at 28.5 h, 10 µM was 98%.

For the compound `CCOC(=O)c1nc2c(n1C)[C@H]1[C@H](O)[C@H](O)C[C@H]1C1(CCC1)N2` [CBK303241], the viability at 28.5 h, 10 µM is 107%.

Consider `O=[N+]([O-])c1ccc(S(=O)(=O)NCCc2nc3ccccc3[nH]2)cc1` [CBK261796], for which the viability at 28.5 h, 10 µM turned out to be 112%.

For the compound `CN(C)c1cccc(-c2cncc(Nc3ccc(Cl)cc3)n2)c1` [CBK065738], the viability at 28.5 h, 10 µM amounted to 98.8%.

Turning to `CS(=O)(=O)c1cccc(-c2cnc(NCC3CC3)c(C(=O)Nc3ccc4c(c3)OCO4)c2)c1` [CBK076362], the viability at 28.5 h, 10 µM turned out to be 95.2%.

Take `CCOC(=O)C1(C)C=C(Nc2cccc(C)c2)C(=O)N1c1ccccc1` (stereo not drawn) [CBK263757]: the viability at 28.5 h, 10 µM stood at 96.8%.

For `COc1ccc(NC(=O)CC(C(=O)O)N2CCOCC2)cc1` (stereo not drawn) [CBK266955], the viability at 28.5 h, 10 µM came to 101%.

As for `COC(=O)c1cc(NC(=O)OC(C)(C)C)ccc1O` [CBK016529], the viability at 28.5 h, 10 µM turned out to be 86%.

Regarding `O=C1NC=CCC12CCCN(S(=O)(=O)c1ccc(F)cc1)C2` (stereo not drawn) [CBK284797], the viability at 28.5 h, 10 µM stood at 93.5%.

As for `CC(=O)Nc1ccc(C(=O)CSc2nc(-c3ccccc3)cs2)cc1` [CBK268038], the viability at 28.5 h, 10 µM is 101%.

As to `O=C(O)c1cccc(S(=O)(=O)N(CCO)CCO)c1` [CBK263221], the viability at 28.5 h, 10 µM was determined as 93.2%.

Take `CS(=O)(=O)c1ccc(CN2C(=O)CC3(CCN(Cc4ccccc4)CC3)C2=O)cc1` [CBK144065T]: the viability at 28.5 h, 10 µM turned out to be 108%.

Take `Nc1ncnc2c1nc(SCc1ccccc1)n2Cc1ccccc1` [CBK288181]: the viability at 28.5 h, 10 µM turned out to be 90.9%.
